{"source": "paper PMC7933358", "about": "“Enzymatic spiroketal formation via oxidative rearrangement of pentangular polyketides” (Nature Communications, 2021)", "key": {"[1]": {"target": "T1, GrhO6 (Streptomyces sp. JP95, UniProt Q8KSX5)", "T1 construct": "full-length gene in pETDuet-1 (EcoRI/PstI), polyhistidine tag kept; E. coli BL21 (DE3)", "T1 sequence (Q8KSX5 1-520)": "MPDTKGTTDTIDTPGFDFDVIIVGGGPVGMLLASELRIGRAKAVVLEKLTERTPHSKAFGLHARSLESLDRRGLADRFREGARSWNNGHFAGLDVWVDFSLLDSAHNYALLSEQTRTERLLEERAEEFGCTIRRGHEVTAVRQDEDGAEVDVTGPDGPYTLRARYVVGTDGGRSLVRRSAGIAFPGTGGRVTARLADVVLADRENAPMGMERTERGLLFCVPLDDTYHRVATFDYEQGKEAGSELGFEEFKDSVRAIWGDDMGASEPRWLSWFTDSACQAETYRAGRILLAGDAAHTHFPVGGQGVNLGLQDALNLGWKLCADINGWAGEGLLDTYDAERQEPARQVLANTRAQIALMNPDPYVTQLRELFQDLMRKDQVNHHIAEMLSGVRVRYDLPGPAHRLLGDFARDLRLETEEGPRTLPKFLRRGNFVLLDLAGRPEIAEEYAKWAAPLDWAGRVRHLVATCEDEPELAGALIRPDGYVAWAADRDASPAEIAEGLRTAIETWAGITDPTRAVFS", "assay": "identification of flavin bound to purified enzyme by HPLC", "type": "binding", "conditions": "co-purified cofactor, tight, non-covalent"}, "[2]": {"target": "T2, GrhO5 (Streptomyces sp. JP95, UniProt Q8KSX7)", "T2 construct": "full-length gene in pMAL-c5x-His (NdeI/PstI), N-terminal MBP tag kept; E. coli BL21 (DE3); amplified from cosmid pMP31", "T2 sequence (Q8KSX7 1-537)": "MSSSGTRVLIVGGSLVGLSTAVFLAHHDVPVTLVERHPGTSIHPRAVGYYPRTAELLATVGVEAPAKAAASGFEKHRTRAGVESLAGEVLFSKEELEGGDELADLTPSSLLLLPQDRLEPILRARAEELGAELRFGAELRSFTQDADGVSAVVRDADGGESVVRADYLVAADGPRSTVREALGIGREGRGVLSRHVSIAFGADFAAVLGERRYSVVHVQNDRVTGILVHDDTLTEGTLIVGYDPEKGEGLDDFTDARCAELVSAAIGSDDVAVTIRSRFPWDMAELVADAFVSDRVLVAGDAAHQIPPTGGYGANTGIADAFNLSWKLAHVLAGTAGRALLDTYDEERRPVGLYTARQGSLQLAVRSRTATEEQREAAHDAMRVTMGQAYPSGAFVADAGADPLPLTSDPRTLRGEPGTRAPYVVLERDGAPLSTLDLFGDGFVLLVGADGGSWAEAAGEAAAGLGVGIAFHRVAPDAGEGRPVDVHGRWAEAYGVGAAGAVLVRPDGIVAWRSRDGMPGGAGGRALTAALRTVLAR", "assay": "identification of flavin bound to purified enzyme by HPLC", "type": "binding", "conditions": "co-purified cofactor"}}, "data": [{"compound": "Cc1cc2nc3c(=O)[nH]c(=O)nc-3n(C[C@H](O)[C@H](O)[C@H](O)COP(=O)(O)OP(=O)(O)OC[C@H]3O[C@@H](n4cnc5c(N)ncnc54)[C@H](O)[C@@H]3O)c2cc1C", "note": "[FAD]", "values": [{"measurement": "identification of flavin bound to purified enzyme by HPLC", "setting": "[1]", "value": "contained a tightly, but non-covalently bound FAD cofactor similar to GrhO5"}, {"measurement": "identification of flavin bound to purified enzyme by HPLC", "setting": "[2]", "value": "bound flavin cofactor that was further determined as flavin adenine dinucleotide"}]}]}
